Usually Ki stands for a dissociation constant, usually derived from enzyme kinetics or from competition with a known ligand.

The source of these data is US8236792B2, “Substituted pyrrolidine amides as modulators of the histamine H3 receptor” (Janssen Pharmaceutica NV, priority 2008, dated 2012).

In experiment [1] the target is T1, cloned human H3 receptors (Homo sapiens, UniProt Q9Y5N1).
T1 construct: expressed in transfected cells
Nature of the experiment: H3 Receptor Binding (Human) Method 1. The settings on record: receptor stably expressed in SK-N-MC cells, free base forms, average of results.

The target in another experiment is human H3 receptor (Homo sapiens, UniProt Q9Y5N1). Kind of experiment: H3 Receptor Binding (Human) Method 2, [125I]-iodoproxyfan competitive radioligand binding. Further details: expressed in transfected cells. Conditions: read-out: Human H3 Ki.
Sequence of human H3 receptor (Q9Y5N1 whole entry): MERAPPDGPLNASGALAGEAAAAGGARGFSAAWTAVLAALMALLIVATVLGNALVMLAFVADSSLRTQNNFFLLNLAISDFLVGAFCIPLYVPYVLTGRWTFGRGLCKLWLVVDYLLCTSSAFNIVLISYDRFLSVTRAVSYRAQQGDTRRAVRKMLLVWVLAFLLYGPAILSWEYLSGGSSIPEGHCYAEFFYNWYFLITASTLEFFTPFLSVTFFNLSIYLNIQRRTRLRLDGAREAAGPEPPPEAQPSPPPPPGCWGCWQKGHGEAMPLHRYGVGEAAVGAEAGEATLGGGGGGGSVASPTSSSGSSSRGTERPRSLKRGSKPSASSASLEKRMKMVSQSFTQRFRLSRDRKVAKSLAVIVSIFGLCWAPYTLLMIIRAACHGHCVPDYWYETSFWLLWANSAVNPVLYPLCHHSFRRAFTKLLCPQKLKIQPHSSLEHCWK

Where only a bound is given, the exact number is not on record here.

T1 sequence (Q9Y5N1 whole entry): as above

With `CC(C)(C)OC(=O)N1CC(Oc2cccc(F)c2)C[C@H]1C(=O)N1CCCN(C2CCC2)CC1` (mixture of isomers) [Example 41, (2S)-2-(4-Cyclobutyl-[1,4]diazepane-1-carbonyl)-4-(3-fluoro-phenoxy)-pyrrolidine-1-carboxylic acid tert-butyl ester], in experiment [1], the Ki is 18 nM.

On to `CC(C)(C)OC(=O)N1C[C@H](O)C[C@H]1C(=O)N1CCCN(C2CCC2)CC1` [Example 1, (2S,4R)-2-(4-Cyclobutyl-[1,4]diazepane-1-carbonyl)-4-hydroxy-pyrrolidine-1-carboxylic acid tert-butyl Ester], for which, in experiment [1], the inhibition constant Ki is 70 nM.

As to `CC(C)(C)OC(=O)N1C[C@H](O)C[C@H]1C(=O)N1CCN(C2CCC2)CC1` [Example 2, (2S,4R)-2-(4-Cyclobutyl-piperazine-1-carbonyl)-4-hydroxy-pyrrolidine-1-carboxylic acid tert-butyl Ester], the Ki in experiment [1] was greater than 10000 nM.

With `CC(C)(C)OC(=O)N1C[C@@H](Oc2ccc(F)cc2)C[C@H]1C(=O)N1CCCN(C2CCC2)CC1` [Example 11, (2S,4S)-2-(4-Cyclobutyl-[1,4]diazepane-1-carbonyl)-4-(4-fluoro-phenoxy)-pyrrolidine-1-carboxylic acid tert-butyl ester], in experiment [1], the Ki stood at 37 nM.

In the case of `CC(C)(C)OC(=O)N1C[C@@H](Oc2ccc(F)cc2)C[C@H]1C(=O)N1CCN(C2CCC2)CC1` [Example 12, (2S,4S)-2-(4-Cyclobutyl-piperazine-1-carbonyl)-4-(4-fluoro-phenoxy)-pyrrolidine-1-carboxylic acid tert-butyl ester], the inhibition constant (Ki) in experiment [1] is greater than 1500 nM.

With `CC(C)(C)OC(=O)N1C[C@H](Oc2ccc(F)cc2)C[C@H]1C(=O)N1CCCN(C2CCC2)CC1` [Example 15, (2S,4R)-2-(4-Cyclobutyl-[1,4]diazepane-1-carbonyl)-4-(4-fluoro-phenoxy)-pyrrolidine-1-carboxylic acid tert-butyl ester], in experiment [1], the inhibitory constant (Ki) was determined as 25 nM.

In turn, `CC(C)(C)OC(=O)N1C[C@@H](Oc2ccc(F)cc2)C[C@@H]1C(=O)N1CCCN(C2CCC2)CC1` [Example 18, (2R,4S)-2-(4-Cyclobutyl-[1,4]diazepane-1-carbonyl)-4-(4-fluoro-phenoxy)-pyrrolidine-1-carboxylic acid tert-butyl ester] displayed a Ki in experiment [1] of 5 nM.

Take `CC(C)(C)OC(=O)N1C[C@@H](Oc2cccc(C#N)c2)C[C@@H]1C(=O)N1CCCN(C2CCC2)CC1` [Example 22, (2R,4S)-4-(3-Cyano-phenoxy)-2-(4-cyclobutyl-[1,4]diazepane-1-carbonyl)-pyrrolidine-1-carboxylic acid tert-butyl ester]: the inhibition constant (Ki) in experiment [1] was 3 nM.

In turn, `CC(C)(C)OC(=O)N1CC(Oc2cccc(Cl)c2)C[C@H]1C(=O)N1CCCN(C2CCC2)CC1` (stereo partly drawn) [Example 42, (2S)-4-(3-Chloro-phenoxy)-2-(4-cyclobutyl-[1,4]diazepane-1-carbonyl)-pyrrolidine-1-carboxylic acid tert-butyl ester] returned an inhibition constant (Ki) in experiment [1] of 24 nM.

As for `CC(C)(C)OC(=O)N1CC(Oc2ccc(Cl)cc2)C[C@H]1C(=O)N1CCCN(C2CCC2)CC1` (stereo partly drawn) [Example 43, (2S)-4-(4-Chloro-phenoxy)-2-(4-cyclobutyl-[1,4]diazepane-1-carbonyl)-pyrrolidine-1-carboxylic acid tert-butyl ester], in experiment [1], the Ki was found to be 33 nM.

On to `CC(C)(C)OC(=O)N1CC(Oc2ccc(Cl)c(Cl)c2)C[C@H]1C(=O)N1CCCN(C2CCC2)CC1` (stereo partly drawn) [Example 44, (2S)-2-(4-Cyclobutyl-[1,4]diazepane-1-carbonyl)-4-(3,4-dichloro-phenoxy)-pyrrolidine-1-carboxylic acid tert-butyl ester], for which, in experiment [1], the affinity corresponds to a Ki of 52 nM.

Take `CC(C)(C)OC(=O)N1CC(Oc2ccc(C#N)cc2)C[C@H]1C(=O)N1CCCN(C2CCC2)CC1` (stereo partly drawn) [Example 45, (2S)-4-(4-Cyano-phenoxy)-2-(4-cyclobutyl-[1,4]diazepane-1-carbonyl)-pyrrolidine-1-carboxylic acid tert-butyl ester]: in experiment [1], the inhibitory constant (Ki) came out at 8 nM.

As to `CSc1ccc(OC2C[C@@H](C(=O)N3CCCN(C4CCC4)CC3)N(C(=O)OC(C)(C)C)C2)cc1` (stereo partly drawn) [Example 46, (2S)-2-(4-Cyclobutyl-[1,4]diazepane-1-carbonyl)-4-(4-methylsulfanyl-phenoxy)-pyrrolidine-1-carboxylic acid tert-butyl ester], in experiment [1], the affinity, expressed as Ki, was 35 nM.

In experiment [1], `CC(C)(C)OC(=O)N1CC(Oc2ccccc2)C[C@H]1C(=O)N1CCCN(C2CCC2)CC1` (stereo partly drawn) [Example 47, (2S)-2-(4-Cyclobutyl-[1,4]diazepane-1-carbonyl)-4-phenoxy-pyrrolidine-1-carboxylic acid tert-butyl ester] yielded an inhibition constant Ki of 50 nM.

The compound `CC(C)O[C@@H]1C[C@@H](C(=O)N2CCCN(C3CCC3)CC2)N(C(=O)OC(C)(C)C)C1` [Example 59, (2S,4R)-2-(4-Cyclobutyl-[1,4]diazepane-1-carbonyl)-4-isopropoxy-pyrrolidine-1-carboxylic acid tert-butyl ester] returned an inhibition constant (Ki) in experiment [1] of 16 nM.

Turning to `O=C([C@@H]1C[C@H](Oc2ccc(F)cc2)CN1)N1CCN(C2CCC2)CC1` [Example 63, (2S,4S)-2-(4-Cyclobutyl-piperazine-1-carbonyl)-4-(4-fluoro-phenoxy)-pyrrolidine], the Ki in experiment [1] is 284 nM.

Regarding `O=C([C@@H]1C[C@@H](Oc2ccc(Cl)c(Cl)c2)CN1)N1CCCN(C2CCC2)CC1` [Example 92, (2S,4R)-2-(4-Cyclobutyl-[1,4]diazepane-1-carbonyl)-4-(3,4-dichloro-phenoxy)-pyrrolidine], the Ki in experiment [1] came out at 51 nM.

For `O=C([C@@H]1C[C@H](Oc2ccc(Cl)c(Cl)c2)CN1)N1CCCN(C2CCC2)CC1` [Example 93, (2S,4S)-2-(4-Cyclobutyl-[1,4]diazepane-1-carbonyl)-4-(3,4-dichloro-phenoxy)-pyrrolidine], the inhibition constant (Ki) in experiment [1] worked out at 88 nM.

In turn, `CSc1ccc(O[C@@H]2CN[C@H](C(=O)N3CCCN(C4CCC4)CC3)C2)cc1` [Example 97, (2S,4S)-2-(4-Cyclobutyl-[1,4]diazepane-1-carbonyl)-4-(4-methylsulfanyl-phenoxy)-pyrrolidine] registered an inhibitory constant (Ki) in experiment [1] of 89 nM.

Take `CN1C[C@@H](Oc2ccc(F)cc2)C[C@H]1C(=O)N1CCN(C2CCC2)CC1` [Example 107, (2S,4S)-1-Methyl-2-(4-cyclobutyl-piperazine-1-carbonyl)-4-(4-fluoro-phenoxy)-pyrrolidine]: the affinity in experiment [1], expressed as Ki, was 523 nM.

Compound `CCC(=O)N1C[C@@H](Oc2ccc(F)cc2)C[C@H]1C(=O)N1CCCN(C2CCC2)CC1` [Example 116, (2S,4S)-1-[2-(4-Cyclobutyl-[1,4]diazepane-1-carbonyl)-4-(4-fluoro-phenoxy)-pyrrolidin-1-yl]-propan-1-one] had a Ki in experiment [1] of 152 nM.

For `CC(C)C(=O)N1C[C@@H](Oc2ccc(F)cc2)C[C@H]1C(=O)N1CCCN(C2CCC2)CC1` [Example 117, (2S,4S)-1-[2-(4-Cyclobutyl-[1,4]diazepane-1-carbonyl)-4-(4-fluoro-phenoxy)pyrrolidin-1-yl]-2-methyl-propan-1-one], in experiment [1], the affinity, expressed as Ki, was 796 nM.

`CC(C)(C)CC(=O)N1C[C@@H](Oc2ccc(F)cc2)C[C@H]1C(=O)N1CCCN(C2CCC2)CC1` [Example 118, (2S,4S)-1-[2-(4-Cyclobutyl-[1,4]diazepane-1-carbonyl)-4-(4-fluoro-phenoxy)-pyrrolidin-1-yl]-3,3-dimethyl-butan-1-one] yielded a Ki in experiment [1] of 816 nM.

`CC(=O)N1C[C@@H](Oc2ccc(F)cc2)C[C@H]1C(=O)N1CCN(C2CCC2)CC1` [Example 119, (2S,4S)-1-[2-(4-Cyclobutyl-piperazine-1-carbonyl)-4-(4-fluoro-phenoxy)-pyrrolidin-1-yl]-ethanone]: the inhibitory constant (Ki) in experiment [1] worked out at 300 nM.

Regarding `CS(=O)(=O)N1C[C@@H](Oc2ccc(F)cc2)C[C@H]1C(=O)N1CCCN(C2CCC2)CC1` [Example 137, (2S,4S)-1-Methanesulfonyl-2-(4-cyclobutyl-[1,4]diazepane-1-carbonyl)-4-(4-fluoro-phenoxy)-pyrrolidine], in experiment [1], the inhibition constant (Ki) stood at 206 nM.

For the compound `CS(=O)(=O)N1C[C@@H](Oc2ccc(F)cc2)C[C@H]1C(=O)N1CCN(C2CCC2)CC1` [Example 138, (2S,4S)-2-(4-Cyclobutyl-piperazin-1-yl)-[4-(4-fluoro-phenoxy)-1-methanesulfonyl-pyrrolidin-2-yl]-methanone], in experiment [1], the Ki is greater than 10000 nM.

As for `CC(C)(C)OC(=O)N1C[C@H](OCc2cccc(F)c2)C[C@@H]1C(=O)N1CCCN(C2CCC2)CC1` [Example 150, (2R,4R)-2-(4-Cyclobutyl-[1,4]diazepane-1-carbonyl)-4-(3-fluoro-benzyloxy)-pyrrolidine-1-carboxylic acid tert-butyl ester], the affinity in experiment [1], expressed as Ki, was 77 nM.

For the compound `O=C([C@@H]1C[C@@H](Cc2ccccc2)CN1)N1CCCN(C2CCC2)CC1` [Example 177, (2S,4R)-(4-Benzyl-pyrrolidin-2-yl)-(4-cyclobutyl-[1,4]diazepan-1-yl)-methanone], the inhibition constant Ki on human H3 receptor was found to be 263 nM.

With `O=C([C@@H]1C[C@@H](Cc2ccc(F)cc2)CN1)N1CCCN(C2CCC2)CC1` [Example 178, (2S,4R)-(4-Cyclobutyl-[1,4]diazepan-1-yl)-[4-(4-fluoro-benzyl)-pyrrolidin-2-yl]-methanone], the inhibitory constant (Ki) on human H3 receptor stood at 299 nM.

`O=C([C@@H]1C[C@@H](Cc2cccc(F)c2)CN1)N1CCCN(C2CCC2)CC1` [Example 179, (2S,4R)-(4-Cyclobutyl-[1,4]diazepan-1-yl)-[4-(3-fluoro-benzyl)-pyrrolidin-2-yl]-methanone]: the Ki at human H3 receptor was 348 nM.

In the case of `O=C([C@@H]1C[C@@H](Cc2ccsc2)CN1)N1CCCN(C2CCC2)CC1` [Example 180, (2S,4R)-(4-Cyclobutyl-[1,4]diazepan-1-yl)-(4-thiophen-3-ylmethyl-pyrrolidin-2-yl)-methanone], the inhibition constant (Ki) on human H3 receptor stood at 50 nM.

For the compound `CC(=O)N1C[C@H](Cc2ccc(F)cc2)C[C@H]1C(=O)N1CCCN(C2CCC2)CC1` [Example 181], at human H3 receptor, the Ki turned out to be 2110 nM.

As to `CC(=O)N1C[C@H](Cc2cccc(F)c2)C[C@H]1C(=O)N1CCCN(C2CCC2)CC1` [Example 182], the inhibition constant (Ki) at human H3 receptor was found to be 1160 nM.

On to `CC(=O)N1C[C@H](Cc2ccsc2)C[C@H]1C(=O)N1CCCN(C2CCC2)CC1` [Example 183], for which the Ki on human H3 receptor amounted to 203 nM.
